Data as given in US9521846B2, “Template-fixed peptidomimetics with antimicrobial activity” (priority 2006, dated 2016).
≈ marks a conversion by molar mass, not a printed value. Each block holds one compound with its values, some of them ahead of it. Non-standard residues stand in square brackets, D forms with d. Residues, ends and D or L forms follow the SMILES beside them. dDab = NCC[C@@H](N)C(=O)O; Orn = NCCC[C@H](N)C(=O)O; Dab = NCC[C@H](N)C(=O)O

Key:
[1] = test system: Pseudomonas aeruginosa P1021913; type: cell-based; conditions: P1021913
Procedure: (§1) The selective antimicrobial activities of the peptides were determined in 96-well plates (Nunclon polystyrene) by the standard NCCLS broth microdilution method (see ref 1, below) with slight modifications. Innocula of the microorganisms were diluted into Mueller-Hinton (MH) broth+0.02% BSA and compared with a 0.5 Mcfarland standard to give appr. 10^6 colony forming units (CFU)/ml. Aliquots (50 μl) of inoculate were added to 50 μl of MH broth+0.02% BSA containing the peptide in serial two-fold dilutions. The following microorganisms were used to determine antibiotic selectivity of the peptides: Escherichia coli (ATCC 25922), Pseudomonas aeruginosa (P. aeruginosa ATCC 27853, P8191900, P1021903, P1021913, IMP 1 Livermore 3140).

[2] = test system: Pseudomonas aeruginosa IMP 1 Livermore 3140; type: cell-based; conditions: IMP 1 Livermore 3140
Procedure: as §1

[3] = test system: Pseudomonas aeruginosa P8191900; type: cell-based; conditions: P8191900
Procedure: as §1

[4] = test system: Pseudomonas aeruginosa P1021903; type: cell-based; conditions: P1021903
Procedure: as §1

[5] = test system: HELA cells (Acc57); assay: Cytotoxicity assay, MTT reduction (LC 50, GI 50); type: cell-based
Procedure: The cytotoxicity of the peptides to HELA cells (Acc57) and COS-7 cells (CRL-1651) was determined using the MIT reduction assay [see ref. 2 and 3, below]. Briefly the method was as follows: HELA cells and COS-7 cells were seeded at 7.0×10^3 and, respectively, 4.5×10^3 cells per well and grown in 96-well […] plates for 24 hours at 37° C. at 5% CO2. At this point, time zero (Tz) was determined by MTT reduction (see below). The supernatant of the remaining wells was discarded, and fresh medium and the peptides in serial dilutions of 12.5, 25 and 50 μM were dispensed into the wells. Each peptide concentration was assayed in triplicate. Incubation of the cells was continued for 48 hours at 37° C. at 5% CO2. Wells were then washed once with phosphate buffered saline (PBS) and subsequently 100 μl MIT reagent (0.5 mg/ml in medium RPMI1640 and, respectively, DMEM) were added to the wells. This was incubated at 37° C. for 2 hours and subsequently the medium was aspirated and 100 μl isopropanol were added to each well. The absorbance at 595 nm of the solubilized product was measured (OD595peptide). For each concentration averages were calculated from triplicates. The percentage of growth was calculated as follows: (OD595peptide-OD595Tz-OD595Empty well)/(OD595Tz-OD595Empty well)×100% and was plotted for each peptide concentration.
The LC 50 values (Lethal Concentration, defined as the concentration that kills 50% of the cells) were determined for each peptide by using the trend line function of EXCEL (Microsoft Office 2000) for the concentrations (50, 25, 12.5 and 0 μM), the corresponding growth percentages and the value −50, (=TREND(C50:C0,%50:%0,−50)). The GI 50 (Growth Inhibition) concentrations were calculated for each peptide by using a trend line function for the concentrations (50, 25, 12.5 and 0 […]), the corresponding percentages and the value 50, (=TREND (C50:C0,%50:%0,50).

[6] = test system: human red blood cells (hRBC); assay: Hemolysis; type: cell-based; conditions: 100
Procedure: Hemolysis of red blood cells is often employed for assessment of toxicity of related compounds such as protegrin or tachyplesin. Values are given as %-lysis of red blood cells observed at a concentration of 100 μg/ml. Typical values determined for cationic peptides such as protegrin and tachyplesin range between 30-40% with average MIC-values of 1-5 μg/ml over a wide range of pathogens.
The peptides were tested for their hemolytic activity against human red blood cells (hRBC). Fresh hRBC were washed three times with phosphate buffered saline (PBS) by centrifugation for 10 min at 2000×g. Peptides at a concentration of 100 μM were incubated with 20% v/v hRBC for 1 hour at 37° C. The final erythrocyte concentration was approximately 0.9×10^9 cells per ml. A value of 0% and, respectively, 100% cell lysis was determined by incubation of the hRBC in the presence of PBS alone and, respectively, 0.1% Triton X-100 in H2O. The samples were centrifuged, the supernatant was 20-fold diluted in PBS buffer and the optical density (OD) of the sample at […] was measured. The 100% lysis value (OD540H20) gave an OD540 of approximately 1.3-1.8. Percent hemolysis was calculated as follows: (OD540peptide/OD540H20)×100%.

[7] = test system: P. aeruginosa
[8] = test system: P. aeruginosa ATCC 27853; type: cell-based, Pseudomonas aeruginosa; conditions: ATCC 27853
Procedure: as §1

MIC P. aeruginosa P1021913 [1]: 0.50 µg/mL (≈ 0.314 µM)
MIC P. aeruginosa IMP1 Livermore 3140 [2]: 0.75 µg/mL (≈ 0.47 µM)
MIC P. aeruginosa P8191900 [3]: 0.13 µg/mL (≈ 0.0815 µM)
MIC P. aeruginosa P1021903 [4]: 0.13 µg/mL (≈ 0.0815 µM)
Average MIC [7]: 0.32 µg/mL
MIC P. aeruginosa ATCC 27853 [8]: 0.09 µg/mL (≈ 0.0564 µM)
Structure (SMILES): CC[C@H](C)[C@@H]1NC(=O)[C@H](Cc2c[nH]c3ccccc23)NC(=O)[C@H](CCC(=O)O)NC(=O)[C@@H]2CCCN2C(=O)[C@H]2CCCN2C(=O)[C@H](CCN)NC(=O)[C@H](C)NC(=O)[C@H](CCN)NC(=O)[C@H](CCN)NC(=O)[C@H](Cc2c[nH]c3ccccc23)NC(=O)[C@H](CCN)NC(=O)[C@@H](CCN)NC(=O)[C@H](CCCN)NC(=O)[C@H](CCN)NC1=O [Example 47] (cyclo(EWI[Dab][Orn][dDab][Dab]W[Dab][Dab]A[Dab][dP]P))
Cytotoxicity GI50 Hela cells [5]: 50 µM
Hemolysis at 100 μg/ml [6]: 0.2%

MIC P. aeruginosa P1021913 [1]: 1.25 µg/mL (≈ 0.778 µM)
MIC P. aeruginosa IMP1 Livermore 3140 [2]: >2 µg/mL
MIC P. aeruginosa P8191900 [3]: 1.50 µg/mL (≈ 0.933 µM)
MIC P. aeruginosa P1021903 [4]: 2.00 µg/mL (≈ 1.24 µM)
Average MIC [7]: >1 µg/mL
MIC P. aeruginosa ATCC 27853 [8]: 0.75 µg/mL (≈ 0.467 µM)
Structure (SMILES): CC[C@H](C)[C@@H]1NC(=O)[C@H](Cc2c[nH]c3ccccc23)NC(=O)[C@H]([C@@H](C)O)NC(=O)[C@@H]2CCCN2C(=O)[C@H]2CCCN2C(=O)[C@H](CCN)NC(=O)[C@@H]2CCCN2C(=O)[C@H](CCN)NC(=O)[C@H](CCN)NC(=O)[C@H](Cc2c[nH]c3ccccc23)NC(=O)[C@H](CCN)NC(=O)[C@H](CCN)NC(=O)[C@H](CCCCN)NC(=O)[C@H](CCN)NC1=O [Example 17] (cyclo(TWI[Dab]K[Dab][Dab]W[Dab][Dab]P[Dab][dP]P))
Cytotoxicity GI50 Hela cells [5]: 29 µM
Hemolysis at 100 μg/ml [6]: 0.5%

MIC P. aeruginosa P1021913 [1]: 0.27 µg/mL (≈ 0.166 µM)
MIC P. aeruginosa IMP1 Livermore 3140 [2]: 1.06 µg/mL (≈ 0.653 µM)
MIC P. aeruginosa P8191900 [3]: 0.17 µg/mL (≈ 0.105 µM)
MIC P. aeruginosa P1021903 [4]: 0.17 µg/mL (≈ 0.105 µM)
Average MIC [7]: 0.35 µg/mL
MIC P. aeruginosa ATCC 27853 [8]: 0.09 µg/mL (≈ 0.0554 µM)
Structure (SMILES): CC[C@H](C)[C@@H]1NC(=O)[C@H](Cc2c[nH]c3ccccc23)NC(=O)[C@H]([C@@H](C)O)NC(=O)[C@@H]2CCCN2C(=O)[C@H]2CCCN2C(=O)[C@H](CCN)NC(=O)[C@H](CC(N)=O)NC(=O)[C@H](CCN)NC(=O)[C@H](CCN)NC(=O)[C@H](Cc2c[nH]c3ccccc23)NC(=O)[C@H](CCN)NC(=O)[C@H](CCN)NC(=O)[C@H](CCCCN)NC(=O)[C@H](CCN)NC1=O [Example 38] (cyclo(TWI[Dab]K[Dab][Dab]W[Dab][Dab]N[Dab][dP]P))
Cytotoxicity GI50 Hela cells [5]: 50 µM
Hemolysis at 100 μg/ml [6]: 0.5%

More lines, now with the values behind:

Structure (SMILES): CC[C@H](C)[C@@H]1NC(=O)[C@H](Cc2c[nH]c3ccccc23)NC(=O)[C@H]([C@@H](C)O)NC(=O)[C@@H]2CCCN2C(=O)[C@H]2CCCN2C(=O)[C@H](CCN)NC(=O)[C@H](CCC(=O)O)NC(=O)[C@H](CCN)NC(=O)[C@H](CCN)NC(=O)[C@H](Cc2c[nH]c3ccccc23)NC(=O)[C@H](CCN)NC(=O)[C@H](CCN)NC(=O)[C@H](CCCCN)NC(=O)[C@H](CCN)NC1=O [Example 15] (cyclo(TWI[Dab]K[Dab][Dab]W[Dab][Dab]E[Dab][dP]P))
MIC P. aeruginosa P1021913 [1]: 2.25 µg/mL (≈ 1.37 µM)
MIC P. aeruginosa IMP1 Livermore 3140 [2]: >2 µg/mL
MIC P. aeruginosa P8191900 [3]: 2.50 µg/mL (≈ 1.53 µM)
MIC P. aeruginosa P1021903 [4]: 1.25 µg/mL (≈ 0.763 µM)
Cytotoxicity GI50 Hela cells [5]: 50 µM
Hemolysis at 100 μg/ml [6]: 0.3%
Average MIC [7]: >1 µg/mL
MIC P. aeruginosa ATCC 27853 [8]: 0.50 µg/mL (≈ 0.305 µM)

Structure (SMILES): CC[C@H](C)[C@@H]1NC(=O)[C@H](Cc2c[nH]c3ccccc23)NC(=O)[C@H]([C@@H](C)O)NC(=O)[C@@H]2CCCN2C(=O)[C@H]2CCCN2C(=O)[C@H](CCN)NC(=O)[C@H]([C@@H](C)CC)NC(=O)[C@H](CCN)NC(=O)[C@H](CCN)NC(=O)[C@H](Cc2c[nH]c3ccccc23)NC(=O)[C@H](CCN)NC(=O)[C@H](CCN)NC(=O)[C@H](CCCCN)NC(=O)[C@H](CCN)NC1=O [Example 8] (cyclo(TWI[Dab]K[Dab][Dab]W[Dab][Dab]I[Dab][dP]P))
MIC P. aeruginosa P1021913 [1]: 0.31 µg/mL (≈ 0.191 µM)
MIC P. aeruginosa IMP1 Livermore 3140 [2]: 0.43 µg/mL (≈ 0.265 µM)
MIC P. aeruginosa P8191900 [3]: 0.18 µg/mL (≈ 0.111 µM)
MIC P. aeruginosa P1021903 [4]: 0.18 µg/mL (≈ 0.111 µM)
Cytotoxicity GI50 Hela cells [5]: 50 µM
Hemolysis at 100 μg/ml [6]: 0%
Average MIC [7]: 0.23 µg/mL
MIC P. aeruginosa ATCC 27853 [8]: 0.05 µg/mL (≈ 0.0308 µM)

Structure (SMILES): CC[C@H](C)[C@@H]1NC(=O)[C@H](Cc2c[nH]c3ccccc23)NC(=O)[C@H]([C@@H](C)O)NC(=O)[C@@H]2CCCN2C(=O)[C@H]2CCCN2C(=O)[C@H](CCN)NC(=O)[C@H](CC(C)C)NC(=O)[C@H](CCN)NC(=O)[C@H](CCN)NC(=O)[C@H](Cc2c[nH]c3ccccc23)NC(=O)[C@H](CCN)NC(=O)[C@H](CCN)NC(=O)[C@H](CCCCN)NC(=O)[C@H](CCN)NC1=O [Example 7] (cyclo(TWI[Dab]K[Dab][Dab]W[Dab][Dab]L[Dab][dP]P))
MIC P. aeruginosa P1021913 [1]: 0.65 µg/mL (≈ 0.4 µM)
MIC P. aeruginosa IMP1 Livermore 3140 [2]: >2 µg/mL
MIC P. aeruginosa P8191900 [3]: 0.50 µg/mL (≈ 0.308 µM)
MIC P. aeruginosa P1021903 [4]: 1.50 µg/mL (≈ 0.924 µM)
Cytotoxicity GI50 Hela cells [5]: 13 µM
Hemolysis at 100 μg/ml [6]: 0.8%
Average MIC [7]: >1 µg/mL
MIC P. aeruginosa ATCC 27853 [8]: 0.13 µg/mL (≈ 0.0801 µM)

Structure (SMILES): CC[C@H](C)[C@@H]1NC(=O)[C@H](Cc2c[nH]c3ccccc23)NC(=O)[C@H]([C@@H](C)O)NC(=O)[C@@H]2CCCN2C(=O)[C@H]2CCCN2C(=O)[C@H](CCN)NC(=O)[C@H](CC(=O)O)NC(=O)[C@H](CCN)NC(=O)[C@H](CCN)NC(=O)[C@H](Cc2c[nH]c3ccccc23)NC(=O)[C@H](CCN)NC(=O)[C@H](CCN)NC(=O)[C@H](CCCCN)NC(=O)[C@H](CCN)NC1=O [Example 14] (cyclo(TWI[Dab]K[Dab][Dab]W[Dab][Dab]D[Dab][dP]P))
MIC P. aeruginosa P1021913 [1]: 0.65 µg/mL (≈ 0.4 µM)
MIC P. aeruginosa IMP1 Livermore 3140 [2]: >2 µg/mL
MIC P. aeruginosa P8191900 [3]: 0.40 µg/mL (≈ 0.246 µM)
MIC P. aeruginosa P1021903 [4]: 0.31 µg/mL (≈ 0.191 µM)
Cytotoxicity GI50 Hela cells [5]: 12 µM
Hemolysis at 100 μg/ml [6]: 0.3%
Average MIC [7]: >1 µg/mL
MIC P. aeruginosa ATCC 27853 [8]: 0.21 µg/mL (≈ 0.129 µM)
